Data from ChEMBL document CHEMBL1136097, “Synthesis of the first examples of A-C8/C-C2 amide-Linked pyrrolo[2,1-c][1,4]benzodiazepine dimers” (Bioorg Med Chem Lett, 2003).

How the values were obtained:
[1] = In vitro inhibitory activity against human tumor cell line CHI; type: functional
A2780cisR = test: In vitro inhibitory activity against human tumor cell line A2780cis; type: functional, cell-based
A2780 = test: In vitro inhibitory activity against human tumor cell line A2780; type: functional, cell-based
[2] = In vitro inhibitory activity against human tumor cell line CHIcis; type: functional
SK-OV-3 = test: In vitro inhibitory activity against human tumor cell line SKOV-3; type: functional, cell-based

IC50 [1]: > 25 µM
IC50 (A2780cisR): > 25 µM
IC50 (A2780): > 25 µM
IC50 [2]: > 25 µM
IC50 (SK-OV-3): > 25 µM
Structure (SMILES): COc1cc2c(cc1OC)C(=O)N1C=C(CC(=O)Nc3ccc4c(c3)N=C[C@@H]3CCCN3C4=O)C[C@H]1C=N2
